In patent publication US12004538B2, “Method for improving meat quality” (CAN TECHNOLOGIES, INC., priority 2017, dated 2024):
Read-outs that look alike come from different tables or passages of the source.

Experiments:
[1] = for Carcass yield: HCW divided by live weight
Description: (§1) The trial was conducted in the grower-finisher unit 1 and 2 of Cargill Innovation Center Velddriel, The Netherlands. Pigs were allocated with 64 days of age. A randomized block design was used using 6 treatments divided over 48 pens by using 8 weight blocks in total. A pen was the experimental unit. Each pen contained 4 animals. Barrows and gilts were equally distributed among treatments. The experiment consisted of a 3×2 factorial design with three different levels of Bolifor™ CNFR (calcium nitrate) and with and without heat stress, with 8 replications per treatment (Table 1). During phase 1 (day 0 to day 24, i.e., d0-24) a common diet was fed. In phase 2 (d24-56) and phase 3 (d56-101) pigs were fed one of the 6 experimental diets (pellet form).
On day 83 of the trial one pig per pen was removed and transported to a commercial processing plant. On day 102, pigs were weighed and transported to a commercial processing plant (Compaxo, Zevenaar, The Netherlands). Each pig received an ear tag according to pen number to allow for data retrieval by pen and carcass data collection at the packing plant. Hot carcass weights (HCW) were measured immediately after evisceration and each carcass was evaluated for backfat, loin depth, and lean percentage. Fat depth and loin depth were measured with an optical probe inserted between 3rd and 4th last rib. Lean percentage was provided from the packing plant by using a proprietary equation. Percentage yield was calculated by dividing HCW by live weight obtained before transport to the packing plant.
Temperature, humidity and ventilation were automatically controlled. During phase 1 (from experimental day 0 until 24) pigs were not submitted to heat stress conditions. From experimental day 32 onwards pigs in Unit 2 were exposed to heat stress conditions (total period length of 66 days). During this period of heat stress the temperature was raised to 30° C. (from 8 AM-6 PM) and decreased to 26° C. from 6 PM-8 AM. During the heat stress period the relative humidity was kept at 80% in Unit 2 and the minimum ventilation was adjusted according to the body weight of the pigs.

[2] = system: longissimus muscle; conditions: for L* day 2 / a* day 2 / b* day 2 / pH* day 2: 24 hours after slaughter; for L* day 1 / a* day 1 / b* day 1: day of slaughter
Description: as §1
At slaughter, meat samples were taken to measure meat color. Color was evaluated at the longissimus muscle for L* (lightness), a* (redness), and b* (yellowness) values using a Minolta spectrophotometer. The first measurement was taken 3 hours postmortem and the second measurement 24 hours after first measurement. At the time of the 2nd color measurement, pH was also measured.

[3] = young piglets
[4] = Description: as §1
Feed intake and body weight were measured at day 0, 24, 39, 59, 83 and 101. Ultrasound measurements were made at day 24, 59 and 101. To get more insight on metabolic defenses when pigs are submitted to heat stress, urine samples were taken at experimental day 84 (105 kg average BW) in the morning from the control animals (16 animals) in the heat stress group and the non-heat stressed group to measure pH, and calcium and phosphorus content. The pH was measured right after collection. During the first three weeks of heat stress skin temperature was measured daily with an infrared device (Testo 845). From 3 weeks onwards, skin temperature was measured weekly.
For comparison of the different treatments, the parameters ADG, ADFI and Feed conversion ratio (FRC) (all normally distributed) were subjected to Mixed Model analysis, using SAS JMP (Version 9.0, SAS Institute Inc., Cary, NC, 2008) according to the following statistical model: Yijk=μ+αi+βj+(αβ)ij+Sexk+δi1+BW24m+εijklm Where, • μ=population mean; • αi=main effect of temperature/room i (A), i=1, 2; • βj=main effect of calcium nitrate level j (B), j=1, 2, 3; • Sex1=random effect of sex, 1=barrow, gilt; • BW24m=BW at day 24 (covariable) • (αβ)ij is the interaction effect of A and B; for each j and for each i • δik˜Niid(0, s^2a) is the whole plot (block) error, k=1, 2, . . . , 8; • εijk˜Niid(0, s^2e) is the sub plot (pen) error, k=1, 2, . . . , 8. Linear and quadratic contrast for calcium nitrate level was tested. Differences between treatment means were assumed to be significant based on the probability of P<0.05 (Student t-test); unless other probability value is stated.

[5] = cited from earlier work
[6] = 0.063% nitrate inclusion in feed
[7] = heat stress, nitrate 0.063% in diet
[8] = heat stress, nitrate 0.1% in diet
[9] = normal temperature, nitrate 0.063% in diet
[10] = normal temperature, nitrate 0.1% in diet
[11] = grower-finisher pigs, nitrate in the water

Structure (SMILES): O=[N+]([O-])[O-].O=[N+]([O-])[O-].[Ca+2] [Nitrate, calcium nitrate]
- carcass yield, rank among treatments [1, 6]: highest
- slaughter weight, rank among treatments [1, 6]: lowest slaughter weight
- effect of nitrate level on carcass yield ([1]; P<0.05): quadratic effect
- effect of nitrate level on full weight ([1]; P<0.05): quadratic effect
- effect of nitrate level on slaughter weight ([1]; P<0.05): quadratic effect
- Backfat [1, 7]: 18.7 mm
- Carcass weight [1, 7]: 100.2 kg
- Lean meat [1, 7]: 56.1%
- Muscle [1, 7]: 68.6 mm
- Slaughter weight [1, 7]: 122.8 kg
- Weight full [1, 7]: 125.0 kg
- Carcass yield [1, 7]: 81.7%
- Backfat [1, 8]: 18.9 mm
- Carcass weight [1, 8]: 101.2 kg
- Lean meat [1, 8]: 55.9%
- Muscle [1, 8]: 68.5 mm
- Slaughter weight [1, 8]: 124.9 kg
- Weight full [1, 8]: 127.6 kg
- Carcass yield [1, 8]: 81.2%
- carcass weight compared to the other treatments ([1]; normal temperature, 0.063%): higher carcass weight
- Backfat [1, 9]: 20.3 mm
- Carcass weight [1, 9]: 105.1 kg
- Lean meat [1, 9]: 55.0%
- Muscle [1, 9]: 67.8 mm
- Slaughter weight [1, 9]: 126.0 kg
- Weight full [1, 9]: 128.2 kg
- Carcass yield [1, 9]: 83.6%
- Backfat [1, 10]: 16.8 mm
- Carcass weight [1, 10]: 99.5 kg
- Lean meat [1, 10]: 57.4%
- Muscle [1, 10]: 69.3 mm
- Slaughter weight [1, 10]: 127.3 kg
- Weight full [1, 10]: 129.6 kg
- Carcass yield [1, 10]: 78.3%
- L* day 2 [2, 7]: 55.5
- a* day 2 [2, 7]: 9.5
- b* day 2 [2, 7]: −0.4
- pH* day 2 [2, 7]: 5.36
- L* day 2 [2, 8]: 55.1
- a* day 2 [2, 8]: 9.8
- b* day 2 [2, 8]: −0.7
- pH* day 2 [2, 8]: 5.35
- L* day 2 [2, 9]: 53.5
- a* day 2 [2, 9]: 9.8
- b* day 2 [2, 9]: −1.0
- pH* day 2 [2, 9]: 5.60
- L* day 2 [2, 10]: 53.7
- a* day 2 [2, 10]: 9.9
- b* day 2 [2, 10]: −0.9
- pH* day 2 [2, 10]: 5.58
- L* day 1 [2, 7]: 43.1
- a* day 1 [2, 7]: 7.0
- b* day 1 [2, 7]: −1.5
- L* day 1 [2, 8]: 42.5
- a* day 1 [2, 8]: 7.1
- b* day 1 [2, 8]: −1.6
- L* day 1 [2, 9]: 42.5
- a* day 1 [2, 9]: 7.3
- b* day 1 [2, 9]: −1.5
- L* day 1 [2, 10]: 43.0
- a* day 1 [2, 10]: 7.2
- b* day 1 [2, 10]: −1.4
- parameter a* at day 2 with increasing level of calcium nitrate in the diet ([2]; main effect of nitrate level, P=0.012): linearly increased
- pH values in longissimus dorsi, main effect of nitrate ([2]; pig, in vivo): no significant effects
- adverse effects on performance ([3]; feed dose titration 0.2, 0.4, 0.6, 0.8 and 1.0% calcium nitrate): no adverse effects
- met-hemoglobin ([3]; highest level of calcium nitrate inclusion): stayed well within levels considered as safe
- effect of calcium nitrate level on weight ([4]; day 83 and 101, P<0.05): quadratic effect
- FCR ([4]; overall period (24-101 days), nitrate level 1 (0.063%), heat stress conditions, tendency P=0.09): better FCR
- FCR with increasing level of calcium nitrate in the diet ([4]; phase 2 (d24-59) and whole trial (d24-101), P<0.05): linearly increased
- effect of calcium nitrate level on ADG ([4]; phase 3 (d59-101), P<0.10): tended to show a quadratic effect
- effect of calcium nitrate level on ADFI ([4]; phase 3 and whole trial, P<0.05): quadratic effect
- effect of calcium nitrate level on ADG ([4]; whole trial (d24-101), P<0.05): quadratic effect
- effect on hemoglobin or met-hemoglobin in the blood [5, 11]: no effect
- effect on meat and liver NO content and on meat color, smell or taste [5, 11]: no effect
- level of nitrate in swine feed that can be dosed safely ([5]; swine feed): ≥ 0.1%
